The text below walks through data of paper PMC9442914, “Antidiabetic potential of Lysiphyllum strychnifolium (Craib) A. Schmitz compounds in human intestinal epithelial Caco-2 cells and molecular docking-based approaches” (BMC Complementary Medicine and Therapies, 2022).

“Also recorded” adds a separate entry of the source.

One data set concerns GLUT5 mRNA. As to the kind of experiment: Transcription of GLUT5 mRNA in Caco-2 cells (RT-PCR). Format: cell-based, human. To be noted: 62.50 µg/ml, normalized to GAPDH. The method, then:
(§1) RNA was extracted from Caco-2 cells using an RNA extraction kit (QIAGEN, Hilden, Germany). Reverse transcription was performed with SuperScript III Reverse Transcriptionase (Thermo Fisher Scientific, Waltham, USA). cDNA was synthesized from 2 µg of total RNA according to the manufacturer’s instructions. Then, the cDNA was maintained at − 20°C for further analysis by real-time PCR. The specific primers used in the experiment were as follows: SGLT1, 5’-[…]-3’ (forward) and 3’-[…]-5’ (reverse); GLUT2, 5’-[…]-3’ (forward) and 3’-[…]-5’ (reverse); GLUT5, 5’- […]-3’ (forward) and 3’-[…]-5’ (reverse). All conditions were performed in triplicate with 3 independent experiments. The real-time qPCR mixture (10 µL) comprised 1 µL of DNA polymerase, template DNA (25 ng), 1 µL of DEPC, and 1.2 µL of forward and reverse primers. Thermal cycling (Applied Biosystems, Waltham, USA) consisted of (denaturation 95 °C for 20 s, annealing 63.3 °C for 30 s, and extension 72 °C for 20 s, 40 cycles. The gene expression data were normalized to the internal control gene GAPDH and then compared using comparative delta-delta Ct.

A further data set relates to GLUT2 mRNA. As to the kind of experiment: Transcription of GLUT2 mRNA in Caco-2 cells (RT-PCR). The note with it: 62.50 µg/ml, normalized to GAPDH. Format: cell-based, human. The method, then:
as §1

A further data set concerns SGLT1 mRNA. Nature of the data set: Transcription of SGLT1 mRNA in Caco-2 cells (RT-PCR). Format: cell-based, human. To be noted: 62.50 µg/ml, normalized to GAPDH. The method, then: as §1
The next data set in a line: ABTS scavenging assay. To be noted: mean ± SEM.
Data set [1] can be described thus: DPPH radical scavenging assay. To be noted: mean ± SEM. Here is the method: The method by Kumar, Sanjiv et al. was adopted for DPPH (2,2-diphenyl-1-picrylhydrazyl) assays with slight modifications. Briefly, DPPH solution (100 µl) and extract solution (100 µl) were added to a 96-well microplate and thoroughly mixed. The absorbance was measured at 517 nm after a 30-minute incubation time at room temperature.
On the technique in general: The DPPH test is a chemical assay of radical scavenging.

For the next data set, the system named is Caco-2 cells. Nature of the data set: Cell viability assay (MTT) in Caco-2 cells. Format: cell-based, human. The note with it: concentrations from 0 to 62.50 ug/ml, 24 h. Here is the method:
(§2) Caco-2 cells were obtained from the American Type Culture Collection (ATCC). The cells were cultured in DMEM with 10% FBS and 1% penicillin–streptomycin solution and were maintained at 37 °C in a humidified environment of 95% air and 5% CO2. For the viability test, the Caco-2 cells were seeded on 96-well plates, and 24-well Transwell plates were used to determine α-glucosidase inhibition. […] Fresh media was supplied to the cells every two days during this period.
Caco-2 cells were obtained from the American Type Culture Collection (ATCC). The cells were grown in complete medium (DMEM with 10% FBS, 100 units/mL penicillin, and 100 µg/mL streptomycin) and plated at a density of 10,000 cells per well in 96-well plates for 21 days. Then, the cells were treated with extracts at concentrations ranging from […] for another 24 h. DMSO (0.1%) was added to the control group. The MTT test was used to measure cell viability after treatment. In a 96-well plate, 100 µl of MTT at a concentration of 0.5 mg/ml was applied to each well. The MTT solution was withdrawn after 3 h of incubation at 37 °C, and formazan crystals were dissolved in 100 µl of DMSO. At 570 nm, the purple color that was generated was detected spectrophotometrically (with a reference OD of 690). Prism 6 software was used to calculate cell viability. The appropriate concentration of extracts was chosen for future experiments.

Data set [2] deals with α-glucosidase in Caco-2 cells. As to the kind of experiment: Inhibition of α-glucosidase activity in Caco-2 cell monolayer. The note with it: apical side of Caco-2 monolayer; 31.25 and 62.50 ug/ml tested, concentration of the values not given. Format: cell-based, human. The method, then:
as §2
Caco-2 cells were seeded in 24-transwell plates at a density of 10,000 cells per well for 21 days. The cells were washed in 1X PBS after the culture media was removed. […] At the same time, the lower chamber was filled with glucose-free medium (500 µl). Then, 50 µl of culture media from the upper chamber was taken and measured by the glucose oxidase method.

As usually defined, the EC50 is the concentration needed to bring the measured effect to its halfway point. Low values mean a more potent agent, high ones a less potent agent.

As to `C[C@H]1O[C@H](O[C@H]2[C@H](O)[C@@H](O)[C@@H](O[C@H]3[C@H](O)[C@@H](O)C(O)O[C@@H]3CO)O[C@@H]2CO)[C@H](O)[C@@H](O)[C@@H]1N[C@H]1C=C(CO)[C@@H](O)[C@H](O)[C@H]1O` (stereo partly drawn) [Acarbose, acarbose, reference compound], the “Transcription of GLUT5 gene (mRNA)” value with GLUT5 mRNA is listed as “downregulated”. The “Transcription of GLUT2 gene (mRNA)” value in the data set on GLUT2 mRNA is on record as “downregulated”. Further, in the data set on SGLT1 mRNA, the “Transcription of SGLT1 gene (mRNA)” value is on record as “downregulated”.

`O=C1O[C@H]([C@@H](O)CO)C(O)=C1O` [Ascorbic acid, ascorbic acid, reference compound]: the EC50 in “ABTS scavenging assay” worked out at 25.1 ± 0.19 µM; in data set [1], 30.38 ± 0.18 µM.

Turning to `C[C@@H]1O[C@@H](Oc2coc3cc(O)cc(O)c3c2=O)[C@H](O)[C@H](O)[C@H]1O` [Compound 1, 3,5,7-trihydroxychromone-3-O-α-L-rhamnopyranoside], the EC50 was 10.3 ± 0.2 µM in the data set “ABTS scavenging assay” and 5.22 ± 0.2 µM in data set [1]. The “Transcription of GLUT5 gene (mRNA)” value in the data set on GLUT5 mRNA is on record as “downregulated”. Moreover, in the data set with Caco-2 cells, the “Cytotoxicity to Caco-2 cells (MTT)” value is “without cytotoxicity; also recorded: not cytotoxic”. Further, in data set [2], the “α-glucosidase activity compared with untreated cells” value was found to be 59.75%. In the data set on GLUT2 mRNA, the “Transcription of GLUT2 gene (mRNA)” value is “downregulated”. In addition, in the data set with SGLT1 mRNA, the “Transcription of SGLT1 gene (mRNA)” value is reported as “downregulated”.
